Source: patent publication US9771341B2, “Piperazine carbamates and methods of making and using same” (Abide Therapeutics, Inc., priority 2015, dated 2017)

Key:
[1] = molecular target: T1, FAAH (Mus musculus, UniProt O08914); experiment: In vitro competitive activity-based protein profiling (mouse), FAAH; type: biochemical; conditions: for inhibition at 1 µM: mouse proteome, in vitro; for IC50: mouse brain membrane fraction or cell lysates, 30 min preincubation at 37° C, FP-Rh probe
T1 construct: Proteomes (mouse brain membrane fraction or cell lysates); from tissue; host or cells: mouse brain membrane fraction (or unspecified cell lysates)
T1 sequence (O08914 1-579): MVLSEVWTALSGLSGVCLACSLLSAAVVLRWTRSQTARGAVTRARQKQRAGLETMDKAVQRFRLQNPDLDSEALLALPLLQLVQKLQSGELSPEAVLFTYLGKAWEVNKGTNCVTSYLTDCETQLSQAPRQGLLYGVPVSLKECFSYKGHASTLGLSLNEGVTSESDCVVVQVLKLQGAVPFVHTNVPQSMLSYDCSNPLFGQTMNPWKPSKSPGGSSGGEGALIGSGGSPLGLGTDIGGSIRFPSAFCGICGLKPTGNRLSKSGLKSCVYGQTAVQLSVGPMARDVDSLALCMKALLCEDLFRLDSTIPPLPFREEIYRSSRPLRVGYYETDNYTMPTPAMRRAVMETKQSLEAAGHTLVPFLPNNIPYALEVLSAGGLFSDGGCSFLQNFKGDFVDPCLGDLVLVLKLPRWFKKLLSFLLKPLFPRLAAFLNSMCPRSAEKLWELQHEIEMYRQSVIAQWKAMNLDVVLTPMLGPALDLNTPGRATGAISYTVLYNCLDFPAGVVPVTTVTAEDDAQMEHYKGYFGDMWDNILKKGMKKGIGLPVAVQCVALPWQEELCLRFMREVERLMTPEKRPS
In short: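 Mouse brain membrane fraction or cell lysates (1.0 mg/mL protein) preincubated with inhibitors 30 min at 37° C, then FP-Rh probe 30 min at 37° C. SDS-PAGE fluorescence band intensity gave FAAH activity.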

[2] = molecular target: T1, FAAH; experiment: Mouse brain proteomes from inhibitor treated mice, FAAH; type: in vivo; conditions: 5 mg/kg oral gavage, C57Bl/6J mice, brain proteome 4 h after administration
Method: (§1) Preparation of Mouse Brain Proteomes from Inhibitor Treated Mice.
Inhibitors were administered to wild-type C57Bl/6J by oral gavage in a vehicle of polyethylene glycol. Each animal was sacrificed 4 h following administration and brain proteomes were prepared and analyzed according to previously established methods (See Niphakis, M. J., et al. (2011) ACS Chem. Neurosci. and Long, J. Z., et al. Nat. Chem. Biol. 5:37-44)

[3] = molecular target: T2, MAGL (Mus musculus, UniProt O35678); experiment: In vitro competitive activity-based protein profiling (mouse), MAGL; type: biochemical; conditions: for inhibition at 1 µM: mouse proteome, in vitro, read-out: % Inhibition at 1 μM MAGL; for IC50: mouse brain membrane fraction or cell lysates, 30 min preincubation at 37° C, FP-Rh probe
T2 construct: Proteomes (mouse brain membrane fraction or cell lysates); from tissue; host or cells: mouse brain membrane fraction (or unspecified cell lysates)
T2 sequence (O35678 1-303): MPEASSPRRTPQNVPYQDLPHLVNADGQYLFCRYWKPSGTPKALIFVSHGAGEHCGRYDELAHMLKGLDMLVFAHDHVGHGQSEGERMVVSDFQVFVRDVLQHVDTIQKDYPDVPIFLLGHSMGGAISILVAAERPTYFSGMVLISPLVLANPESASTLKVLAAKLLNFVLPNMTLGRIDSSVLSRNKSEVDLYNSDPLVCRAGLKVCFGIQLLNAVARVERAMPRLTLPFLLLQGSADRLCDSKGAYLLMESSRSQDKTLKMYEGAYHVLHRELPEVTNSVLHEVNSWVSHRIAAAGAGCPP
Method: (§2) In Vitro Competitive Activity-Based Protein Profiling (Mouse).
(§3) Proteomes (mouse brain membrane fraction or cell lysates) (50 μL, 1.0 mg/mL total protein concentration) were preincubated with varying concentrations of inhibitors at 37° C. After 30 min, FP-Rh (1.0 μL, 50 μM in DMSO) was added and the mixture was incubated for another 30 min at 37° C. Reactions were quenched with SDS loading buffer (50 μL-4×) and run on SDS-PAGE.

[4] = molecular target: T3, ABHD6 (Mus musculus, UniProt Q8R2Y0); experiment: In vitro competitive activity-based protein profiling (mouse), ABHD6; type: biochemical; conditions: for inhibition at 1 µM: mouse proteome, in vitro, read-out: % Inhibition at 1 μM ABHD6; for IC50: mouse brain membrane fraction or cell lysates, 30 min preincubation at 37° C, FP-Rh probe
T3 construct: Proteomes (mouse brain membrane fraction or cell lysates); from tissue; host or cells: mouse brain membrane fraction (or unspecified cell lysates)
T3 sequence (Q8R2Y0 1-336): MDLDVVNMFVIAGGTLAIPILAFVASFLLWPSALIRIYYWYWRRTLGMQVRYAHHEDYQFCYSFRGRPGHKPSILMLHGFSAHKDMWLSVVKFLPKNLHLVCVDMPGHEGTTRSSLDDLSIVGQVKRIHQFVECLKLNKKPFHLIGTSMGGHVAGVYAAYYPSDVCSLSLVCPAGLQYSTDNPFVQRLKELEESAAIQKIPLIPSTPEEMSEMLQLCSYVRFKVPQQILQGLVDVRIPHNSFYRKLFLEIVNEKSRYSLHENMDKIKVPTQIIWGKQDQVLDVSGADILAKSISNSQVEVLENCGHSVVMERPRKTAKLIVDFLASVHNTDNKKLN
Method: as §2, §3

[5] = molecular target: T2, MAGL; experiment: Mouse brain proteomes from inhibitor treated mice, MAGL; type: in vivo; conditions: 5 mg/kg oral gavage, C57Bl/6J mice, brain proteome 4 h after administration
Method: as §1
(§4) Inhibitors were administered to wild-type C57Bl/6J by oral gavage in a vehicle of polyethylene glycol.

[6] = molecular target: T3, ABHD6; experiment: Mouse brain proteomes from inhibitor treated mice, ABHD6; type: in vivo; conditions: 5 mg/kg oral gavage, C57Bl/6J mice, brain proteome 4 h after administration
Method: as §1, §4

## Cc1ccc(CN2CCN(C(=O)OC(C(F)(F)F)C(F)(F)F)CC2)c(N2CC[C@H](CF)C2)c1 [Example 53, 1,1,1,3,3,3-hexafluoropropan-2-yl (S)-4-(2-(3-(fluoromethyl)pyrrolidin-1-yl)-4-methylbenzyl)piperazine-1-carboxylate]
[1]
  inhibition at 1 µM: < 25%
  IC50: > 1000 nM
[2]
  inhibition at 5 mg/kg: < 25%
[3]
  inhibition at 1 µM: > 75%
  IC50: < 100 nM
[4]
  inhibition at 1 µM: < 25%
  IC50: > 1000 nM
[5]
  inhibition at 5 mg/kg: > 75%
[6]
  inhibition at 5 mg/kg: < 25%

## O=C(O)C1CN(c2cc(C(F)(F)F)ccc2CN2CCN(C(=O)OC(C(F)(F)F)C(F)(F)F)CC2)CCO1 (centres unmarked) [Example 75, 4-(2-((4-(((1,1,1,3,3,3-hexafluoropropan-2-yl)oxy)carbonyl)piperazin-1-yl)methyl)-5-(trifluoromethyl)phenyl)morpholine-2-carboxylic acid]
[1]
  inhibition at 1 µM: < 25%
  IC50: > 1000 nM
[2]
  inhibition at 5 mg/kg: < 25%
[3]
  inhibition at 1 µM: > 75%
  IC50: < 100 nM
[4]
  inhibition at 1 µM: < 25%
  IC50: > 1000 nM
[5]
  inhibition at 5 mg/kg: < 25%
[6]
  inhibition at 5 mg/kg: < 25%

## CS(=O)(=O)N[C@H]1CCN(c2cc(C(F)(F)F)ccc2CN2CCN(C(=O)OC(C(F)(F)F)C(F)(F)F)CC2)C1 [Example 61, 1,1,1,3,3,3-hexafluoropropan-2-yl (S)-4-(2-(3-(methylsulfonamido)pyrrolidin-1-yl)-4-(trifluoromethyl)benzyl)piperazine-1-carboxylate]
[1]
  inhibition at 1 µM: < 25%
  IC50: > 1000 nM
[2]
  inhibition at 5 mg/kg: < 25%
[3]
  inhibition at 1 µM: > 75%
  IC50: < 100 nM
[4]
  inhibition at 1 µM: < 25%
  IC50: > 1000 nM
[5]
  inhibition at 5 mg/kg: > 75%
[6]
  inhibition at 5 mg/kg: < 25%

## O=C(OC(C(F)(F)F)C(F)(F)F)N1CCN(Cc2ccc(Cl)cc2N2CC[C@H](CF)C2)CC1 [Example 4, 1,1,1,3,3,3-hexafluoropropan-2-yl (S)-4-(4-chloro-2-(3-(fluoromethyl)pyrrolidin-1-yl)benzyl)piperazine-1-carboxylate]
[1]
  inhibition at 1 µM: < 25%
  IC50: > 1000 nM
[2]
  inhibition at 5 mg/kg: < 25%
[3]
  inhibition at 1 µM: > 75%
  IC50: < 100 nM
[4]
  inhibition at 1 µM: < 25%
  IC50: > 1000 nM
[5]
  inhibition at 5 mg/kg: > 75%
[6]
  inhibition at 5 mg/kg: < 25%

## COc1c(CN2CCN(C(=O)OC(C(F)(F)F)C(F)(F)F)CC2)cccc1CN1CCC(F)(F)CC1 [Example 16, 1,1,1,3,3,3-hexafluoropropan-2-yl 4-(3-((4,4-difluoropiperidin-1-yl)methyl)-2-methoxybenzyl)piperazine-1-carboxylate]
[1]
  inhibition at 1 µM: < 25%
  IC50: > 1000 nM
[2]
  inhibition at 5 mg/kg: < 25%
[3]
  inhibition at 1 µM: > 75%
  IC50: < 100 nM
[4]
  inhibition at 1 µM: > 75%
  IC50: 100 to 1000 nM
[5]
  inhibition at 5 mg/kg: > 75%
[6]
  inhibition at 5 mg/kg: 25 to 75%

## O=C(OC(C(F)(F)F)C(F)(F)F)N1CCN(Cc2ccc(Cl)cc2N2CC3CCC(C2)O3)CC1 [Example 30, 1,1,1,3,3,3-hexafluoropropan-2-yl 4-(2-(8-oxa-3-azabicyclo[3.2.1]octan-3-yl)-4-chlorobenzyl)piperazine-1-carboxylate]
[1]
  IC50: > 1000 nM
[2]
  inhibition at 5 mg/kg: < 25%

## CN(C)C(=O)C1CCN(c2cc(C(F)(F)F)ccc2CN2CCN(C(=O)OC(C(F)(F)F)C(F)(F)F)CC2)CC1 [Example 35, 1,1,1,3,3,3-hexafluoropropan-2-yl 4-(2-(4-(dimethylcarbamoyl)piperidin-1-yl)-4-(trifluoromethyl)benzyl)piperazine-1-carboxylate]
[1]
  inhibition at 1 µM: < 25%
  IC50: > 1000 nM
[2]
  inhibition at 5 mg/kg: < 25%
[3]
  inhibition at 1 µM: > 75%
  IC50: < 100 nM
[4]
  inhibition at 1 µM: < 25%
  IC50: > 1000 nM
[5]
  inhibition at 5 mg/kg: > 75%
[6]
  inhibition at 5 mg/kg: < 25%

## Cc1cccc(CN2CCN(C(=O)OC(C(F)(F)F)C(F)(F)F)CC2)c1N1CCC(NS(C)(=O)=O)CC1 [Example 51, 1,1,1,3,3,3-hexafluoropropan-2-yl 4-(3-methyl-2-(4-(methylsulfonamido)piperidin-1-yl)benzyl)piperazine-1-carboxylate]
[1]
  inhibition at 1 µM: < 25%
  IC50: > 1000 nM
[2]
  inhibition at 5 mg/kg: < 25%
[3]
  inhibition at 1 µM: > 75%
  IC50: < 100 nM
[4]
  inhibition at 1 µM: < 25%
  IC50: > 1000 nM
[5]
  inhibition at 5 mg/kg: > 75%
[6]
  inhibition at 5 mg/kg: < 25%

## O=C(OC(C(F)(F)F)C(F)(F)F)N1CCN(Cc2ccc(CN3CCOCC3)cc2OC(F)(F)F)CC1 [Example 23, 1,1,1,3,3,3-hexafluoropropan-2-yl 4-(4-(morpholinomethyl)-2-(trifluoromethoxy)benzyl)piperazine-1-carboxylate]
[1]
  inhibition at 1 µM: < 25%
  IC50: > 1000 nM
[2]
  inhibition at 5 mg/kg: < 25%
[3]
  inhibition at 1 µM: > 75%
  IC50: < 100 nM
[4]
  inhibition at 1 µM: < 25%
  IC50: > 1000 nM
[5]
  inhibition at 5 mg/kg: > 75%
[6]
  inhibition at 5 mg/kg: < 25%

## O=C(OC(C(F)(F)F)C(F)(F)F)N1CCN(Cc2ccc(Cl)cc2N2CC[C@@H](N3CCCC3=O)C2)CC1 [Example 41, 1,1,1,3,3,3-hexafluoropropan-2-yl (R)-4-(4-chloro-2-(2-oxo-[1,3′-bipyrrolidin]-1′-yl)benzyl)piperazine-1-carboxylate]
[1]
  inhibition at 1 µM: < 25%
  IC50: > 1000 nM
[2]
  inhibition at 5 mg/kg: < 25%
[3]
  inhibition at 1 µM: > 75%
  IC50: < 100 nM
[4]
  inhibition at 1 µM: 25 to 75%
  IC50: > 1000 nM
[5]
  inhibition at 5 mg/kg: > 75%
[6]
  inhibition at 5 mg/kg: < 25%

## O=C(OC(C(F)(F)F)C(F)(F)F)N1CCN(Cc2ccc(Cl)cc2N2CC[C@H](N3CCCC3=O)C2)CC1 [Example 42, 1,1,1,3,3,3-hexafluoropropan-2-yl (S)-4-(4-chloro-2-(2-oxo-[1,3′-bipyrrolidin]-1′-yl)benzyl)piperazine-1-carboxylate]
[1]
  inhibition at 1 µM: < 25%
  IC50: > 1000 nM
[2]
  inhibition at 5 mg/kg: < 25%
[3]
  inhibition at 1 µM: > 75%
  IC50: < 100 nM
[4]
  inhibition at 1 µM: 25 to 75%
  IC50: 100 to 1000 nM
[5]
  inhibition at 5 mg/kg: > 75%
[6]
  inhibition at 5 mg/kg: < 25%

## O=C(OC(C(F)(F)F)C(F)(F)F)N1CCN(Cc2ccc(C(F)(F)F)cc2N2C3CCC2COC3)CC1 [Example 58, 1,1,1,3,3,3-hexafluoropropan-2-yl 4-(2-(3-oxa-8-azabicyclo[3.2.1]octan-8-yl)-4-(trifluoromethyl)benzyl)piperazine-1-carboxylate]
[1]
  inhibition at 1 µM: < 25%
  IC50: > 1000 nM
[2]
  inhibition at 5 mg/kg: < 25%
